Tests used:
[1] = test system: normal NK cells expanded with K562-aAPC; assay: percent inhibition of viability; higher = more inhibition; details: 72 h, IL-2 2.5 ng/mL
Procedure: (§1)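 Drug sensitivity and resistance testing on K562-aAPC-expanded normal NK cells: 5 concentrations (10-fold steps over a 10,000-fold range), 72 h at 37 °C, viability by CellTiter-Glo normalised to DMSO and benzethonium chloride controls; DSS from the fitted curve.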

[2] = test system: DERL-7 (IL-2 2.5 ng/mL); assay: as above; details: 72 h
[3] = test system: IMC-1 (IL-2 20 ng/mL); assay: as above; details: 72 h
[4] = test system: KAI3 (IL-2 2.5 ng/mL); assay: as above; details: 72 h
[5] = test system: KHYG-1 (IL-2 2.5 ng/mL); assay: as above; details: 72 h
[6] = test system: NK-92 (IL-2 2.5 ng/mL); assay: as above; details: 72 h
[7] = test system: NK-YS (IL-2 2.5 ng/mL); assay: as above; details: 72 h
[8] = test system: NKL (IL-2 2.5 ng/mL); assay: as above; details: 72 h
[9] = test system: SNK-6 (IL-2 2.5 ng/mL); assay: as above; details: 72 h
[10] = test system: YT (IL-2 2.5 ng/mL); assay: as above; details: 72 h
[11] = test system: normal primary NK cells, pool 1 (3 donors) (IL-2 2.5 ng/mL); assay: as above; details: 72 h
[12] = test system: normal primary NK cells, pool 1 (3 donors), resting (IL-2 0 ng/mL); assay: as above; details: 72 h
[13] = test system: normal primary NK cells, pool 2 (3 donors) (IL-2 2.5 ng/mL); assay: as above; details: 72 h
[14] = test system: normal primary NK cells, pool 3 (3 donors) (IL-2 2.5 ng/mL); assay: as above; details: 72 h
[15] = test system: normal NK cells expanded with K562-aAPC; assay: drug sensitivity score (DSS) (DSS units); higher = more sensitive; extreme values may be limits of the assay; details: 72 h; IL-2 2.5 ng/mL
Procedure: as §1

[16] = test system: DERL-7 (IL-2 2.5 ng/mL); assay: as above; details: 72 h
[17] = test system: IMC-1 (IL-2 20 ng/mL); assay: as above; details: 72 h
[18] = test system: KAI3 (IL-2 2.5 ng/mL); assay: as above; details: 72 h
[19] = test system: KHYG-1 (IL-2 2.5 ng/mL); assay: as above; details: 72 h
[20] = test system: NK-92 (IL-2 2.5 ng/mL); assay: as above; details: 72 h
[21] = test system: NK-YS (IL-2 2.5 ng/mL); assay: as above; details: 72 h
[22] = test system: NKL (IL-2 2.5 ng/mL); assay: as above; details: 72 h
[23] = test system: SNK-6 (IL-2 2.5 ng/mL); assay: as above; details: 72 h
[24] = test system: YT (IL-2 2.5 ng/mL); assay: as above; details: 72 h
[25] = test system: normal primary NK cells, pool 1 (3 donors) (IL-2 2.5 ng/mL); assay: as above; details: 72 h
[26] = test system: normal primary NK cells, pool 1 (3 donors), resting (IL-2 0 ng/mL); assay: as above; details: 72 h
[27] = test system: normal primary NK cells, pool 2 (3 donors) (IL-2 2.5 ng/mL); assay: as above; details: 72 h
[28] = test system: normal primary NK cells, pool 3 (3 donors) (IL-2 2.5 ng/mL); assay: as above; details: 72 h

COc1cc2c(Nc3ccc(Cl)c(Cl)c3F)ncnc2cc1OC[C@@H]1C[C@@H]2CN(C)C[C@@H]2C1 [XL-647] (max concentration tested 1000 nM)
percent inhibition of viability [%]
Details | 0.1 nM | 1 nM | 10 nM | 100 nM | 1000 nM
[1] | -7 | -6.81 | -2.66 | 7.59 | 37.1
[2] | 2.38 | 4.2 | 2.43 | 5.16 | 49.9
[3] | -7 | -0.32 | 0.43 | -6.58 | 6.29
[4] | -2.77 | -5.01 | 0.66 | 13.1 | 44
[5] | -6.79 | -7.9 | -4.38 | -1 | 19.7
[6] | 2.48 | -1.64 | 0.32 | 10.1 | 56.2
[7] | -8.01 | -7.74 | -6.62 | 1.82 | 42.2
[8] | -12.1 | -2.96 | 0.78 | 18.2 | 55.1
[9] | 17.2 | -16.8 | -17.2 | -22.1 | 3.73
[10] | -6.35 | -3.87 | -2.73 | 5.21 | 28.1
[11] | 0.18 | 15.8 | 5.17 | 13.4 | 36.7
[12] | -0.45 | 21.2 | 8.11 | 17.6 | 64.4
[13] | -4.62 | 6.47 | 1.95 | -3.8 | 39.6
[14] | -9.94 | 18.6 | 6.02 | -4.74 | 21.1

Details | drug sensitivity score
[15] | 3.02
[16] | 3.48
[17] | 0
[18] | 4.2
[19] | 0.5
[20] | 4.71
[21] | 2.37
[22] | 5.6
[23] | 0
[24] | 1.99
[25] | 3.29
[26] | 5.88
[27] | 1.68
[28] | 0.47

O=C(c1ccc(/C=C/c2n[nH]c3ccccc23)cc1)N1CCNCC1 [KW-2449] (max concentration tested 2500 nM)
percent inhibition of viability [%]
Details | 0.25 nM | 2.5 nM | 25 nM | 250 nM | 2500 nM
[1] | 1.55 | -7.82 | -4.83 | -5.26 | 33
[2] | -3.07 | -3.42 | -0.35 | -5.82 | 52
[3] | -4.33 | -2.55 | -3.12 | -4.5 | -8.66
[4] | -7.2 | -3.33 | -4.86 | -5.15 | 12.8
[5] | -4.37 | -3.8 | -7.48 | -0.63 | 63.4
[6] | -17.7 | -18 | -20.5 | -12.6 | 18.9
[7] | -5.66 | -7.24 | -6.03 | 0.88 | 42.9
[8] | -16.7 | -15.7 | -8.73 | -17 | 8.68
[9] | 11.8 | 9.47 | 14.2 | 3.56 | 67.5
[10] | 0.95 | 1.96 | -2.99 | -1.32 | 9
[11] | 0.56 | -11.2 | -7.09 | -3.29 | 23.3
[12] | -12.6 | 0.69 | -21.6 | -1.76 | -0.59
[13] | 0.9 | -1.16 | -5.56 | -9.38 | 13.4
[14] | -10.8 | -6.97 | -9.8 | -18.2 | -0.01

Details | drug sensitivity score
[15] | 1.2
[16] | 2.35
[17] | 0.89
[18] | 0.03
[19] | 3.4
[20] | 0.25
[21] | 2.28
[22] | 0
[23] | 4.22
[24] | 0
[25] | 0.65
[26] | 0
[27] | 0.03
[28] | 0.89

CC[C@@H]1C(=O)OC[C@@H]1Cc1cncn1C [Pilocarpine] (max concentration tested 40000 nM)
percent inhibition of viability [%]
Details | 4 nM | 40 nM | 400 nM | 4000 nM | 40000 nM
[1] | -3.76 | -0.92 | 0.04 | 4.29 | 9.84
[2] | 1.42 | -1.75 | 0.14 | 2.27 | -9.94
[3] | 0.9 | 2.74 | 3.37 | 7.24 | 10.8
[4] | -4.19 | -2.59 | -0.69 | 0.97 | 10.8
[5] | -5.1 | 0.26 | 0.29 | 8.1 | 13.5
[6] | -3.6 | -6.46 | -0.49 | 3.22 | 17.6
[7] | -0.26 | 2 | 1.94 | 9.78 | 16
[8] | 0.76 | -2.78 | 1.71 | 1.49 | 4.41
[9] | 7.63 | 1.2 | 25.3 | 7.63 | 17.4
[10] | 0.63 | -1.77 | 4.55 | 7.37 | 12.4
[11] | -1.79 | 4.63 | -1.46 | 6 | 3.9
[12] | 2.62 | 11.3 | -11.4 | 2.11 | -5.32
[13] | -4.81 | -4.05 | -0.5 | 4.72 | -5.35
[14] | -10.7 | -14.3 | -6.23 | 1.83 | -3.82

Details | drug sensitivity score
[15] | 0
[16] | 0
[17] | 0
[18] | 0.01
[19] | 0.51
[20] | 0.79
[21] | 0.76
[22] | 0
[23] | 0
[24] | 0.14
[25] | 0
[26] | 0
[27] | 0
[28] | 0

C=CC[C@@H]1/C=C(\C)C[C@H](C)C[C@H](OC)[C@H]2O[C@@](O)(C(=O)C(=O)N3CCCC[C@H]3C(=O)O[C@H](/C(C)=C/[C@@H]3CC[C@@H](O)[C@H](OC)C3)[C@H](C)[C@@H](O)CC1=O)[C@H](C)C[C@@H]2OC [Tacrolimus] (max concentration tested 10000 nM)
percent inhibition of viability [%]
Details | 1 nM | 10 nM | 100 nM | 1000 nM | 10000 nM
[1] | -12.2 | -4.97 | -9.06 | -4.26 | -5.39
[2] | -6.89 | -0.55 | -1.59 | -6.35 | 23
[3] | 1.61 | -1.68 | -1.5 | -2.11 | 23.3
[4] | -0.56 | 6.96 | 5.19 | -3.38 | 1.06
[5] | -2.54 | -4.56 | 1.9 | 0.69 | 13.5
[6] | -18.9 | -10.1 | -13.5 | 5.35 | 30.1
[7] | 1.38 | -3.09 | 1.86 | 5.94 | 19.8
[8] | -8.22 | -6.4 | -3.18 | 8.38 | 3.72
[9] | 6.17 | -4.96 | -13.1 | -0.42 | 16.6
[10] | 0.78 | -1.87 | 1.16 | 5.77 | 24.4
[11] | -2.12 | 0.6 | 4.89 | 4.45 | 43.2
[12] | -2.76 | -12.4 | 9.06 | 17.2 | 71.7
[13] | 6.61 | 4.19 | 3.62 | 3.15 | 28.9
[14] | 10.7 | 1.86 | -0.29 | -2.25 | 1.84

Details | drug sensitivity score
[15] | 0
[16] | 0.55
[17] | 0.7
[18] | 0
[19] | 0.17
[20] | 2.16
[21] | 1.16
[22] | 0
[23] | 0.32
[24] | 1.73
[25] | 2.93
[26] | 6.54
[27] | 1.72
[28] | 0
